Assay results as given in ChEMBL document CHEMBL1157539, “Thousands of chemical starting points for antimalarial lead identification” (Nature, 2010).

Test system: Plasmodium falciparum
Experiment: GSK_TCMDC: Inhibition of Plasmodium falciparum 3D7 in whole erythrocytes, using parasite LDH activity as an index of growth.
Type: functional, organism-based
Settings: Plasmodium falciparum, 3D7

Compound	XC50
Cc1ccc(Nc2nc(N/N=C/c3cccc(O)c3)nc(Nc3ccc([N+](=O)[O-])cc3)n2)cc1C	735 nM
C[C@@H](CC1CCCCC1)OC(=O)N[C@H]1CCN(C#N)C1	870 nM
CN=C(S)NN=C(C)c1ccccn1	272 nM
Cc1cc(NC(=O)NCCN2CCC(NC(=O)c3ccc(F)cc3)CC2)c2ccccc2n1	331 nM
CS(=O)(=O)c1ccc(-n2nc(C(F)(F)F)cc2-c2ccc(C=NOCC(=O)O)o2)cc1	976 nM
CC(=NNC(=N)N)C(=O)Nc1ccc(Cl)c(Cl)c1	166 nM
O=C(c1ccc(-c2cccc(-c3nc4cc(C(F)(F)F)ccc4[nH]3)c2)cc1)N1CCCCC1CN1CCC(O)C1 (configuration not stated)	652 nM
Cn1cncc1C(=O)Nc1cccc(-c2csc(-c3nc4ccccc4[nH]3)c2)c1	447 nM
CC1CNC(c2ccc(NC(=O)Nc3ccc(C4=NC(C)CN4)cc3)cc2)=N1 (configuration not stated)	379 nM
COc1ccc(CCOc2c(C)nc(N)nc2N)cc1OC	69.6 nM
O=c1c(NCCCN(Cc2ccc(F)cc2)c2ccccn2)c(NCc2cccnc2)c1=O	61.7 nM
Cc1cc(Nc2ncc(C#N)c(Nc3ccccc3C(N)=O)n2)ccc1N1CCN(C)CC1	8.63 nM
CC(O)C1CCCCN1C(=O)c1cccc(-c2ccc(-c3nc4ccccc4[nH]3)s2)c1 (configuration not stated)	798 nM
Cc1ccc(F)cc1S(=O)(=O)NCC(C)c1ccc(NC(=O)Nc2cccc(F)c2)cc1 (configuration not stated)	973 nM
CCOC(=O)C(C(=O)OCC)c1nc(C)ns1	471 nM
CCCNCc1ccc(-c2ccc(CN(CCOC)C(=O)c3nn(-c4ccccc4)nc3C)cc2)nc1	725 nM
CCCCc1cc(NCC)nc(Nc2ccc(OC)cc2)n1	1180 nM
CCCCOc1c(CCC)cc(Cc2cnc(N)nc2N)cc1CCC	629 nM
CC(=O)COc1c(C2CCN(CCCCNC(=O)c3ccc(-c4ccc(C(F)(F)F)cc4)cc3)CC2)ccc2c1CCCC2	784 nM
CC(NC(=O)c1ccc(O)c(-c2ccc(Cl)c(Cl)c2)c1)C(=O)NCCN1CCCCC1 (configuration not stated)	868 nM
N=C(N)NC(=O)Nc1cc(Cl)c(Cl)c(C(F)(F)F)c1	611 nM
CO/C(=C\C=C\c1cc2cc(Cl)ccc2[nH]1)C(=O)NCCCN1CCN(c2cc(Cl)ccc2OC)CC1	877 nM
CC(NC(=O)c1ccc(O)c(-c2ccc(Cl)c(Cl)c2)c1)C(=O)NCCN1CCOCC1 (configuration not stated)	959 nM
CC(C)(C(=O)Nc1ccc(C2CCC(NCC3CC3)CC2)c(Cl)c1)c1cccc(OC(F)F)c1 (configuration not stated)	968 nM
OCc1c(Cl)cc(Cl)cc1CNCCCNc1nc2ccccc2[nH]1	745 nM

Compound	XC50
CC(=O)Nc1cccc(C(=O)Nc2cccc(-c3ccc(-c4nc5cc(F)ccc5[nH]4)s3)c2)c1	896 nM
CCN(CCCN1CCCCC1)c1cc(C)nc(Nc2ccc(Br)cc2F)n1	548 nM
CN(C)CCCOc1ccc(CN2CCC(c3c[nH]c4ccc(NCC5CCCCC5)cc34)CC2)cc1	678 nM
N#Cc1cccc(C(O)CN(Cc2ccccc2)Cc2ccccc2)c1 (configuration not stated)	1270 nM
Cc1cc(F)ccc1Nc1nc(N(C)c2ccccc2)c2cccc(O)c2n1	957 nM
CSc1ccc2ccccc2c1CNCCCCCCNCc1c(SC)ccc2ccccc12	797 nM
CCCOc1ccc(C=C(CC(=O)O)c2nc3ccccc3s2)cc1OCC	554 nM
O=[N+]([O-])c1ccc(CNCCCCCCNCc2ccc([N+](=O)[O-])c3ccccc23)c2ccccc12	787 nM
CCN(CC)S(=O)(=O)c1cc(-c2ccc(=O)n(CC(=O)c3ccc(C)cc3)n2)ccc1C	895 nM
COc1cc2nc(NCC3CCN(c4nc(N)c5cc(OC)c(OC)cc5n4)CC3)nc(N)c2cc1OC	776 nM
O=C(/C=C/c1ccc(Cl)c(Cl)c1)NCCCCCN1CCCN(C(=O)Nc2ccc(C(F)(F)F)cc2)CC1	688 nM
COc1cc(O)c2c(=O)c(OC)c(-c3cccc(Cl)c3OC3O[C@H](CO)[C@@H](O)[C@H](O)[C@H]3O)oc2c1OC (some centres not stated)	774 nM
O=C(CSc1cccc[n+]1[O-])c1ccc(Cc2ncc(C(F)(F)F)cc2Cl)s1	715 nM
COc1ccc2nccc([C@@H](O)CN3CCC(NC(=O)C(c4cc5ccccc5s4)N4CCN(c5ccccc5OC)CC4)CC3)c2c1 (some centres not stated)	160 nM
Cc1ccc(NC(=O)c2cc([N+](=O)[O-])ccc2NCc2cccnc2)cc1Cl	1120 nM
CN(C(=O)c1snnc1-c1ccccc1)C1CCN(CCCCCNC(=O)/C=C/c2ccc(Cl)c(Cl)c2)CC1	186 nM
CC(=O)Nc1ccc(-c2nc3ccc(-c4nc5ccc(NC(C)=O)cc5[nH]4)cc3[nH]2)cc1	242 nM
CC(O)c1cccc(-c2ccc(Nc3ccnc4cc(-c5nccs5)ccc34)cc2)c1 (configuration not stated)	1010 nM
CCC(C)NS(=O)(=O)c1ccc2nc(Nc3ccc(C)cc3)n(C3CCCCC3C)c2c1 (configuration not stated)	592 nM
N=C1N=C(N)NC2(CCCCC2)N1OCCCOc1cc(Cl)c(Cl)cc1Cl	3.2 nM
CN1CCN(c2cccc(-c3nnc(-c4cccc(OCC(=O)NCc5ccc(C(F)(F)F)cc5)c4)o3)c2)CC1	759 nM
CC(=O)N(C)C1CCN(Cc2ccc(-c3cccc(-c4nc5cc(F)ccc5[nH]4)c3)cc2)C1 (configuration not stated)	596 nM
O=C(Nc1ccc([N+](=O)[O-])cc1)Nc1cc(C(F)(F)F)ccc1F	1070 nM
CCC(=O)OC(CCN(CC)CC)(c1ccccc1)c1ccccc1	369 nM
CN(C)c1ccc(CN2CCC(NC(=O)c3ccc(-c4ccc(N(C)C)cc4)s3)CC2)cc1	1070 nM

Compound	XC50
COc1cccc(C(=O)NC(c2ccc(Cl)cc2Cl)c2cc(Cl)c3cccnc3c2O)c1 (configuration not stated)	454 nM
COc1ccc(NC(=O)/C=C/c2ccc(-c3ccc(-c4noc(C)n4)cc3)cc2)cc1OCCN(C)C	1370 nM
CCCCCCC1(C)N=C(N)N=C(N)C1c1ccc(Cl)c(Cl)c1 (configuration not stated)	132 nM
CCC1CCCCN1S(=O)(=O)c1ccc(OC)c(N2CCN(C(=O)C(Cl)(Cl)Cl)CC2)c1 (configuration not stated)	1120 nM
CCN1CCC(N(Cc2ccc(-c3ccc(C(F)(F)F)cc3)cc2)C(=O)CCCCn2c(CCc3cccc(F)c3F)nc(=O)c3ccccc32)CC1	989 nM
NC(=O)c1ccc(C(=O)Nc2cccc(-c3ccc(-c4nc5cc(C(F)(F)F)ccc5[nH]4)cc3)c2)cc1	514 nM
O=C(Nc1cccc(CN2CCCN(Cc3cccc(Cl)c3)CC2)c1)c1ccc(Br)cc1	944 nM
CC(=O)Nc1cccc(CNCc2ccc(-c3cnc(N4CCCC(C)(C)C4)nc3)cc2)c1	822 nM
COc1ccc2nccc([C@@H](O)CN3CCC(NCc4cnc5c(c4)NC(=O)CS5)CC3)c2c1	860 nM
CN1CCN=C1c1ccc(NC(=O)Nc2ccc(C3=NCCN3C)cc2)cc1	379 nM
N#Cc1cccc(NC(=O)Nc2ccc(-c3ccc(-c4nc5cc(C(F)(F)F)ccc5[nH]4)cc3)cc2)c1	145 nM
CCCCCC(C)C(C)c1cc(O)c2c(c1)OC(C)(C)CC2(O)c1ccccn1 (configuration not stated)	741 nM
Cc1noc(C)c1-c1cccc(CNCc2ccc(-c3ccc(-c4nc5cc(F)ccc5[nH]4)cc3)cc2)c1	212 nM
CN(c1ccc(NC(=O)Nc2cccc(Cl)c2)cc1)c1ccnc(N)n1	628 nM
COc1cc(CCNC(=N)/C=C/c2ccc(Cl)cc2)ccc1Cl	241 nM
CN1CCCN(Cc2ccc(-c3cccc(NC(=O)c4cccc(C#N)c4)c3)cc2)CC1	651 nM
Cc1cccc2nc(-c3ccc(-c4cccc(NC(=O)CN5CCN(C)CC5)c4)s3)[nH]c12	826 nM
O=C(NCc1ccc(Cl)c(Cl)c1)c1ccc(C2CCN(Cc3ccc4[nH]cnc4c3)CC2)cc1	957 nM
Cc1ccc2nc(-c3ccc(C(=O)NC4CCN(Cc5ccccc5)CC4)s3)[nH]c2c1	1010 nM
CCCCCOc1ccc(N2C(N)=NC(N)=NC2(C)C)cc1	205 nM
O=C(Nc1cccc(CN2CCCN(Cc3ccc4c(c3)OCO4)CC2)c1)c1ccc(Cl)c(Cl)c1	893 nM
CCCCNCCOc1ccc(-c2nc(-c3ccccc3)c(-c3ccccc3)[nH]2)cc1	679 nM
CC(C)(CNC(=O)C1CCN(CCOCc2ccccc2)CC1)c1nc(-c2ccc(Cl)c(O)c2)c(-c2ccncc2)[nH]1	620 nM
Cc1nnsc1C(=O)Nc1cccc(-c2cccc(-c3nc4cc(C(F)(F)F)ccc4[nH]3)c2)c1	235 nM
Cc1ccc2[nH]c(C)cc(=NN=Cc3cccc(F)c3)c2c1	631 nM

Compound	XC50
Cc1cccc2nc(-c3ccc(-c4cccc(NC(=O)c5cncn5C)c4)s3)[nH]c12	645 nM
COc1ccc2nccc([C@@H](O)CN3CCC(NC(=O)c4ccc5cc[nH]c5c4)CC3)c2c1	969 nM
CS(=O)(=O)N1CC2(CCN(CCC(NC(=O)NCc3ccc(Cl)c(Cl)c3)c3ccc(Cl)c(Cl)c3)CC2)c2ccccc21 (configuration not stated)	799 nM
Oc1ccc(-c2ccccc2)cc1CN1CCCCCC1	1170 nM
CC(C)C1c2ccc(O)cc2CC2C(=O)N(C3CCCCC3)C(=O)N21 (configuration not stated)	884 nM
COc1cc(NC2=C(c3ccccc3)C(=O)c3ccccc32)ccn1	359 nM
CCC(N)(C#Cc1ccc(-c2c(C)[nH]c(C)c(Br)c2=O)cc1)CC	41.5 nM
Cn1cncc1-c1ccc2c(-c3ccsc3)cnc(N)c2c1	850 nM
COc1ccc(-c2cc(C(=O)Nc3ccc(CCCN(C)Cc4ccc(OC)c(OC)c4)cc3)c3ccccc3n2)cc1	698 nM
Cc1cc(OCC2CCCO2)c2cc(NC(=O)C(=O)Nc3ccc4nc(C)cc(OCC5CCCO5)c4c3)ccc2n1 (configuration not stated)	804 nM
COc1csc2cc(Br)ccc12	861 nM
O=C(/C=C/c1ccc(Cl)c(Cl)c1)NC1CCN(Cc2ccc(O)cc2)C1 (configuration not stated)	952 nM
Oc1cc(Nc2ccnc3cc(-c4cccc(CN5CCOCC5)c4)ccc23)c(F)cc1Cl	207 nM
Cc1cccc2nc(-c3ccc(-c4ccc(NC(=O)c5cncn5C)cc4)s3)[nH]c12	670 nM
CN1CC(c2ccccc2)c2cc(O)c(CN3CCCCC3)cc2CC1Cc1ccccc1 (configuration not stated)	176 nM
O=C1c2cc(I)ccc2SC1c1ccccc1 (configuration not stated)	817 nM
COc1ccc2nccc([C@@H](O)CN3CCC(NCc4nc5c(cc4Cl)OCC(=O)N5)C(F)C3)c2c1 (some centres not stated)	1320 nM
NC1=NC2(CCCCC2)N(OCCCCCCN2C(=O)c3ccccc3C2=O)C(N)=N1	871 nM
O=C(Nc1cccc(CN2CCCN(Cc3ccccc3)CC2)c1)c1ccc(-c2ccccc2)cc1	1300 nM
O=C(CCc1c[nH]cn1)Nc1ccc(-c2ccc(-c3nc4cc(F)ccc4[nH]3)cc2)cc1	693 nM
c1ccc2c(C3CCN(CCCCOc4ccc5c(c4)CCN(CC4CC4)CC5)CC3)c[nH]c2c1	982 nM
CC[C@H]1CN2CC[C@@H]1C[C@@H]2[C@@H](O)c1cc(-c2ccc(F)cc2)nc2ccc(OC)cc12	114 nM
